Results reported in ChEMBL document CHEMBL1157129, “Synthesis and antiprotozoal activity of 2,5-bis[amidinoaryl]thiazoles” (Bioorg Med Chem, 2010).
Activity calls are given as the source filed them. No cut-off for these calls is given here.

Columns and labels:
[1] = system: Trypanosoma brucei rhodesiense; experiment: Antitrypanosomal activity against Trypanosoma brucei rhodesiense STIB900 in infected mouse model assessed as parasitemia cure in host at 25 mg/kg, po for 4 days; assay type: functional, organism-based; set-up: dose 25 mg/kg
[2] = system: Trypanosoma brucei rhodesiense; experiment: Antitrypanosomal activity against Trypanosoma brucei rhodesiense STIB900 in infected mouse model assessed as host survival time at 25 mg/kg, po for 4 days; assay type: functional
[3] = system: Trypanosoma brucei rhodesiense; experiment: Antitrypanosomal activity against Trypanosoma brucei rhodesiense STIB900 in infected mouse model assessed as host survival time at 5 mg/kg, ip for 4 days; assay type: functional; settings: route intraperitoneal
L6 = experiment: Cytotoxicity against rat L6 cells; assay type: cell-based
[4] = system: Trypanosoma brucei rhodesiense; experiment: Antitrypanosomal activity against Trypanosoma brucei rhodesiense STIB900 in infected mouse model assessed as parasitemia cure in host at 5 mg/kg, ip for 4 days; assay type: functional, organism-based; set-up: dose 5 mg/kg
Plasmodium falciparum = experiment: Antiplasmodial activity against Plasmodium falciparum K1; assay type: functional, organism-based
[5] = system: Trypanosoma brucei rhodesiense; experiment: Antitrypanosomal activity against Trypanosoma brucei rhodesiense STIB900; assay type: functional, organism-based

SMILES	Activity [1]	Survival [2] [days]	Survival [3] [days]	IC50 (L6) [nM]	Activity [4]	IC50 (Plasmodium falciparum) [nM]	IC50 [5] [nM]
CO/N=C(\N)c1ccc(-c2cnc(-c3ccc(/C(N)=N/OC)nc3)s2)cc1.Cl	inactive	42.8	–	–	–	–	–
N=C(N)c1ccc(-c2ccc(-c3ccc(C(=N)N)cc3)o2)cc1 [FURAMIDINE]	–	–	>46	6500	–	–	–
CONC(=N)c1ccc(-c2ccc(-c3ccc(C(=N)NOC)cc3)o2)cc1 [PAFURAMIDINE]	Active	>60	30	–	inactive	–	–
CO/N=C(\N)c1ccc(-c2cnc(-c3ccc(/C(N)=N\OC)cn3)s2)nc1.Cl.Cl	inactive	9	–	–	–	–	–
CO/N=C(\N)c1ccc(-c2cnc(-c3ccc(/C(N)=N\OC)nc3)s2)cn1.Cl.Cl	–	9	–	–	–	–	–
Cl.Cl.N/C(=N\O)c1ccc(-c2cnc(-c3ccc(/C(N)=N/O)nc3)s2)cc1	inactive	37.5	–	–	–	–	–
N=C(N)c1ccc(OCCCCCOc2ccc(C(=N)N)cc2)cc1 [PENTAMIDINE]	–	–	45	–	–	–	–
N=C(N)c1ccc(-c2ccc(-c3ccc(C(=N)N)cn3)o2)cc1	–	–	>54.5	–	–	–	–
Cl.Cl.N=C(N)c1ccc(-c2cnc(-c3ccc(C(=N)N)cn3)s2)nc1	–	–	21.5	> 195000	inactive	24.6	176
Cl.Cl.N/C(=N\O)c1ccc(-c2cnc(-c3ccc(/C(N)=N\O)cn3)s2)cc1	inactive	24	–	–	–	–	–
Cl.Cl.N/C(=N\O)c1ccc(-c2ncc(-c3ccc(/C(N)=N\O)nc3)s2)cc1	inactive	36.8	–	–	–	–	–
Cl.Cl.N=C(N)c1ccc(-c2ncc(-c3ccc(C(=N)N)nc3)s2)nc1	–	–	29.25	37400	inactive	13	38
CO/N=C(/N)c1ccc(-c2cnc(-c3ccc(/C(N)=N\OC)cc3)s2)cc1.Cl.Cl	inactive	41	–	–	–	–	–
CO/N=C(\N)c1ccc(-c2ccc(-c3ccc(/C(N)=N/OC)cn3)o2)cc1	–	>60	>60	–	Active	–	–
Cl.Cl.N=C(N)c1ccc(-c2ncc(-c3ccc(C(=N)N)nc3)s2)cc1	–	–	> 36	40200	inactive	2.4	6
CO/N=C(\N)c1ccc(-c2cnc(-c3ccc(/C(N)=N\OC)cn3)s2)cc1.Cl.Cl	inactive	35	–	–	–	–	–
Cl.Cl.N/C(=N\O)c1ccc(-c2cnc(-c3ccc(/C(N)=N\O)nc3)s2)cn1	–	24	–	–	–	–	–
Cl.Cl.N/C(=N/O)c1ccc(-c2cnc(-c3ccc(/C(N)=N\O)cc3)s2)cc1	inactive	35	–	–	–	–	–
Cl.Cl.N=C(N)c1ccc(-c2cnc(-c3ccc(C(=N)N)cc3)s2)cc1	–	–	>44.5	–	–	2	4
Cl.Cl.N=C(N)c1ccc(-c2cnc(-c3ccc(C(=N)N)cn3)s2)cc1	–	–	30.25	102000	inactive	12.5	16
Cl.Cl.N=C(N)c1ccc(-c2cnc(-c3ccc(C(=N)N)nc3)s2)cn1	–	–	50.5	1400	inactive	1.1	6
Cl.Cl.N=C(N)c1ccc(-c2cnc(-c3ccc(C(=N)N)nc3)s2)cc1	–	–	44.5	1800	inactive	2.5	4
Cl.Cl.N/C(=N\O)c1ccc(-c2cnc(-c3ccc(/C(N)=N\O)cn3)s2)nc1	inactive	9	–	–	–	–	–
N=C(N)c1ccc(-c2ccc(-c3ccc(C(=N)N)cc3)s2)cc1	–	–	>48.75	–	–	13.8	3
